Results on one compound are retold here after ChEMBL document CHEMBL5131570, “Discovery of Potent Small-Molecule USP8 Inhibitors for the Treatment of Breast Cancer through Regulating ERα Expression” (J Med Chem, 2022).

Test [1] deals with MCF7. Nature of the test: Antitumor activity against human MCF7 cells xenografted in BALB/c mouse assessed as inhibition of tumor growth at 20 mg/kg, ip administered via gavage every other day for 14 days. As to conditions: time 14.0 day. Format: functional, organism-based. A general note: Xenograft models place foreign cells or tissue in a host animal.
In test [2] the target is T1, Ubiquitin carboxyl-terminal hydrolase 8 (Homo sapiens) (UniProt P40818).
T1 sequence (whole entry): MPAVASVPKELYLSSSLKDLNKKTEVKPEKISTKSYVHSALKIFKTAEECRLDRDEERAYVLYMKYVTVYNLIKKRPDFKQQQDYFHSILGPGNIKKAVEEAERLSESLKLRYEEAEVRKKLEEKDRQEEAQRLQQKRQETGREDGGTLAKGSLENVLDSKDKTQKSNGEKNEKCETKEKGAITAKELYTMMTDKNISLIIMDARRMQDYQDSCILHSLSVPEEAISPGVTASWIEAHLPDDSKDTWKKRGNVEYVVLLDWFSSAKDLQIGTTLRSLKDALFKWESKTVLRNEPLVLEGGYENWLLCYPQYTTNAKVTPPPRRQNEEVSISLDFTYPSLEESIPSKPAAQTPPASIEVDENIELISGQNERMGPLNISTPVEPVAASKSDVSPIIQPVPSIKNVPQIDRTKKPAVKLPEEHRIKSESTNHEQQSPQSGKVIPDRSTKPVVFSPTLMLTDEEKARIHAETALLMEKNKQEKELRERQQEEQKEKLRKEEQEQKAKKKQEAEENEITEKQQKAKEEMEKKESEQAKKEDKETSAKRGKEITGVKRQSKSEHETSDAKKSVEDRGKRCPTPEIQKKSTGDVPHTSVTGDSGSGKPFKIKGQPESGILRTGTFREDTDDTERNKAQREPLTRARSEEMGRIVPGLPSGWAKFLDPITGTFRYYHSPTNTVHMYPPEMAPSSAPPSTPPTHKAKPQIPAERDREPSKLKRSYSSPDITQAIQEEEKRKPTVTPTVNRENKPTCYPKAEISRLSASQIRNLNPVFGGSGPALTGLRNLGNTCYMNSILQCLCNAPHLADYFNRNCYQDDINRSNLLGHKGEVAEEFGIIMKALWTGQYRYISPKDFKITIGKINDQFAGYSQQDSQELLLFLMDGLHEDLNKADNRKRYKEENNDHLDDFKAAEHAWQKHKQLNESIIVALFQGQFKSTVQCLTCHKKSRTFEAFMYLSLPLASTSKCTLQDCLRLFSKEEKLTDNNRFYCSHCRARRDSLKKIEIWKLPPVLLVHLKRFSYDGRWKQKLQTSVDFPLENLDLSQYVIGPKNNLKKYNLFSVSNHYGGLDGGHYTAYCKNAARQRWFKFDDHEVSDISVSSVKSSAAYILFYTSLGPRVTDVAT
Nature of the test: Inhibition of N-terminal His6-tagged USP8 catalytic domain (734 to 1110 residues) in HEK293T cell lysates up to 100 uM in presence of HA-Ub-VS probe by USP8 antibody based Western blotting assay. Format: subcellular. (In general: A western blot detects proteins with antibodies after separation by electrophoresis.)

Test [3] relates to MCF7. Briefly: Induction of apoptosis in human MCF7 cells assessed as increase in apoptotic cells at 2 uM incubated for 12 hrs by AnnexinV-FITC/propidium iodide staining based flow cytometry relative to control (reference value: 2.00 %). Format: functional. In general terms: A flow cytometer gives signals particle by particle.

Activity calls are given as the source filed them. No cut-off for these calls is given here.

For the compound `Cc1n[nH]c(C)c1Oc1c(O)cc(O)c2c(=O)cc(-c3ccc(N4CCN(c5ccccn5)CC4)cc3)oc12`, the result in test [1] was Active. In test [2], the inhibition result was “Active”. In test [3], the Activity is reported as 12.57%.
